From PMC8148066 (Acta Pharmaceutica Sinica. B, 2021)

Assays:
CYP51 in gut microbiota = experiment: CYP51 activity in colonic contents; format: biochemical, mice; details: inhibitor 8 and 20 μg/mL, 6 h, vs. Control
gut microbiota = experiment: FLZ-to-M1 conversion in colonic contents with CYP51 inhibitors; format: in vitro ADME, mice; details: FLZ 2 μg/mL with CYP51 inhibitor 8 and 20 μg/mL, 6 h

SMILES	Activity of CYP51 in the reaction system of colonic contents (CYP51 in gut microbiota)	Concentration of FLZ in the colonic contents (gut microbiota)	Concentration of M1 in the colonic contents (gut microbiota)	Ratio of M1/FLZ in gut microbiota (gut microbiota)
CCC(C)n1ncn(-c2ccc(N3CCN(c4ccc(OCC5COC(Cn6cncn6)(c6ccc(Cl)cc6Cl)O5)cc4)CC3)cc2)c1=O (stereo not shown) [itraconazole]	inhibited	increased	decreased	reduced
C[C@@H](c1ncncc1F)[C@](O)(Cn1cncn1)c1ccc(F)cc1F [voriconazole]	inhibited	increased	decreased	–
